Consider three molecules from US11286268B1, “EIF4E-inhibiting compounds and methods” (EFFECTOR THERAPEUTICS, INC., priority 2019, dated 2022).

Where two headings read alike, the source gives them in different places. Where only a bound is given, the exact number is not on record here.

In experiment [1] the target is recombinant eIF4E (Homo sapiens (Human), UniProt P06730). The experiment is described as follows: Fluorescence polarization competition assay for eIF4E binding potency. A digest of the protocol:
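Protein and fluorescent cap-analog probe (EDA-m7GDP-ATTO-550) were mixed first for 5 min, after which serially diluted compound was added to final 75 nM eIF4E, 20 nM probe, 1% DMSO. Reactions equilibrated 30 min at room temperature before polarization was measured.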

Experiment [2] has as its system MDA-MB-361 cells. Description: Cell proliferation assay (CELLTITER-GLO). It counts as cell-based. To be noted: Homo sapiens, 144 h, 6 days of treatment; for IC50: CELLTITER-GLO, % of DMSO control. As to the method:
MDA-MB-361 cells were maintained in DMEM supplemented with 10% FBS and 1× penicillin/streptomycin solution at […] in a CO2 incubator. For cell proliferation assays, exponentially growing cells were seeded at 2,000 cells per well in 96-well flat bottom white polystyrene plates (ThermoFisher) and cultured overnight. The following day, compound was added in a 9 point 3-fold dilution series starting from a top concentration of 1 or 10 μM (as indicated) together with a DMSO control. The final DMSO concentration in samples was 0.1%.
Cells were incubated for up to 6 […] at 37° C. in a CO2 incubator. Baseline viability of untreated cells was measured on the day of treatment and proliferation was measured after 6 […] of treatment using CELLTITER-GLO® reagent from Promega (Madison, Wis.) according to the manufacturer's instructions. Response to compound was calculated relative to the DMSO control (% of control) using the formula, % of control (DMSO)=[(CTGcells+inhibitor)/(CTGDMSO control)]×100. Data were plotted using Prism (GraphPad software), and IC50 and Emax values were calculated from a 4 parameter, variable slope non-linear regression model. Results are shown below and in FIGS. 1-3.
For orientation: In ATP-based viability assays light output follows the ATP content of the culture.

[3] abbreviates: fluorescence polarization competition, 75 nM recombinant eIF4E, 20 nM EDA-m7GDP-ATTO-550, IC50 class, read-out: elF4E FP.
Setting [4] is: inhibition of eIF4E/EDA-m7GDP-ATTO-550 binding by 50%, Table 4B calculated values, read-out: IC50.

Sequence of recombinant eIF4E (P06730 whole entry): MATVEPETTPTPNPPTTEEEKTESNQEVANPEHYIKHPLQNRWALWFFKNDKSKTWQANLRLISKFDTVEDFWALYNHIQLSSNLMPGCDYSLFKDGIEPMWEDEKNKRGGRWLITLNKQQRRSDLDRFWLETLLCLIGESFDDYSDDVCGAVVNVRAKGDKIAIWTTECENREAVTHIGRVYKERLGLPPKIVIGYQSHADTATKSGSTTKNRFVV

For `Cc1nc2cnc(N(C)C3CCN(CC(C)(F)F)CC3)c(C#N)c2c(=O)n1CC#Cc1ccc(Cl)cc1-c1ccnc2c(C(=O)O)csc12` [compound 1141, 7-(5-chloro-2-(3-(5-cyano-6-((1-(2,2-difluoropropyl)piperidin-4-yl)(methyl)amino)-2-methyl-4-oxopyrido[3,4-d]pyrimidin-3(4H)-yl)prop-1-yn-1-yl)phenyl)thieno[3,2-b]pyridine-3-carboxylic acid], the figures for the IC50 in experiment [1] (setting [3]), in experiment [1] (setting [4]) and in experiment [2] were less than 50 nM, 18.9 nM and 361 nM, respectively.
Regarding `Cc1cc(-c2cc(Cl)ccc2OCCn2c(C)nc3cc(C(F)(F)F)c(N4CCN(C)CC4)c(C#N)c3c2=O)c2scc(C(=O)O)c2n1` [compound 634, 7-(5-chloro-2-(2-(5-cyano-2-methyl-6-(4-methylpiperazin-1-yl)-4-oxo-7-(trifluoromethyl)quinazolin-3(4H)-yl)ethoxy)phenyl)-5-methylthieno[3,2-b]pyridine-3-carboxylic acid], the IC50 in experiment [1] (setting [3]) is less than 50 nM; in experiment [1] (setting [4]) it was 5.62 nM; in experiment [2], 3.8 nM.
With `Cc1nc2cnc(N(C)C3CCN(C4CC(F)(F)C4)CC3)c(C#N)c2c(=O)n1CC#Cc1ccc(Cl)cc1-c1ccnc2c(C(=O)NS(C)(=O)=O)csc12` [compound 1188, 7-(5-chloro-2-(3-(5-cyano-6-((1-(3,3-difluorocyclobutyl)piperidin-4-yl)(methyl)amino)-2-methyl-4-oxopyrido[3,4-d]pyrimidin-3(4H)-yl)prop-1-yn-1-yl)phenyl)-N-(methylsulfonyl)thieno[3,2-b]pyridine-3-carboxamide], the IC50 was less than 50 nM in experiment [1] (setting [3]), 12.4 nM in experiment [1] (setting [4]) and 46.8 nM in experiment [2]. The molecule further yielded an Emax in experiment [2] (4 parameter non-linear regression) of 90.2%.
